How the values were obtained:
[1] = biological target: T1, Cx43 hemichannels (Homo sapiens, UniProt P17302); assay: Propidium iodide dye uptake assay after irradiation, TIME cells; format: cell-based
T1 construct: endogenous in cells; host or cells: TICAE and TIME cells (human endothelial cell lines)
From the text: Hemichannel opening was also investigated by dye uptake studies making use of the hemichannel permeable fluorescent tracer propidium iodide (PI; MW 668.4 Da). In addition, dextran fluorescein 10 kDa dye was used to assess membrane integrity and occurrence of cell death. PI stains cells with open hemichannels, late apoptotic and necrotic cells, while dextran fluorescein only stains late apoptotic and necrotic cells. Therefore, PI-positive and dextran fluorescein-negative cells are a measure for hemichannel opening while dextran fluorescein-positive cells are a measure for dead cells.
TICAE and TIME cells were seeded in a 24-well plate at a density of 1.25×10^5 and 1.5×10^5 cells/well, respectively, in six biological replicates. Three days later, cells reached 100% confluence. Thirty minutes before irradiation, cells were refreshed with 1 ml medium alone or with medium supplemented with 100 μM TAT-Gap19 (Genosphere Biotechnologies, Paris, France). For fractionated irradiation, cells were refreshed with 1.5 ml medium/well. […] Finally, the fluorescence was measured using an IncuCyte ZOOM® system (Essen BioScience, Ann Arbor, Mich., USA) by using different channels (TRITC, FITC and phase contrast) and a 10× objective Fluorescence signal was normalized to cell number.

[2] = system: TICAE cells; assay: Cell death, Annexin V and Caspase 3/7 live cell imaging, TICAE cells; format: cell-based, human
Protocol: TICAE and TIME cells were seeded in 96 well plates at a density of 10000 cells/well in 8 biological replicates. After three days, cells were at 100% confluence. At 30 minutes before X-ray exposure, cells were refreshed with 200 μl medium supplemented with Caspase 3/7 reagent (1:1000 dilution) and Annexin V reagent (1:200 dilution) (Essen Bioscience, United Kingdom) with or without 100 μM TAT-Gap19 (Genosphere Biotechnologies, Paris, France). Fluorescence signals were measured from 4 h until 100 h after irradiation by imaging every 2 hours using the IncuCyte ZOOM® system (Essen BioScience, Ann Arbor, Mich., USA). Different channels (TRITC, FITC and phase contrast) and a 10× objective were used. Spectral unmixing set as 8% of red removed from green was applied. The IncuCyte software's processing definition was set to recognize red (Annexin V) and green (Caspase 3/7) stained cells, making use of the Top-Hat background subtraction method. Fluorescence signal was normalized to cell count.

[3] = system: TICAE cells; assay: Cytokine detection (Magnetic Luminex) in supernatant after irradiation, TICAE cells; format: cell-based, human
Protocol: (§1) TICAE and TIME cells were seeded in a 6-well plate at a density of 2.5×10^5 cells/well in 5 to 6 biological replicates. Two to three days later, cells reached 100% confluence. At 30 minutes before X-ray exposure, cells were refreshed with medium with or without 100 μM TAT-Gap19 (Genosphere Biotechnologies, Paris, France). At 24 h, 48 h, 72 h and 7 d after irradiation, the supernatant was collected. Medium was changed only for the 7 d time point experiment at the fourth day with fresh medium alone or with medium supplemented with 100 μM TAT-Gap19. For the simultaneous detection of multiple cytokines in the supernatants, the Magnetic Luminex® Assay (R&D systems, Minneapolis, […]) was used following manufacturer's instructions. Briefly, supernatants, standards and microparticles were incubated into a 96-well plate which was pre-coated with cytokine-specific antibodies. The immobilized antibodies were able to bind the cytokines of interest after 2 h incubation, then the plate was washed and incubation with a biotinylated antibody cocktail specific to the cytokines of interest was performed for 1 h. A second wash was performed to remove the unbound biotinylated antibodies. Further, a streptavidin-phycoerythrin conjugate was added to each well to bind to the biotinylated antibodies. After a final wash, the microparticles were resuspended in buffer and read using the Luminex® MAGPIX Analyzer (R&D systems, Minneapolis, […]).
(§2) In order to normalize to cell number, DAPI staining was performed for the 48 h after irradiation time point. Briefly, cells were washed with phosphate buffered saline (PBS) and fixed with 4% paraformaldehyde (PFA) for 15 minutes at room temperature. Afterwards, the cells were washed with PBS and stained with 1 μg/mL 4′,6-Diamidine-2′-phenylindole (DAPI) dissolved in 1×TBST, 0.005 g/v % TSA blocking powder (PerkinElmer, FP1012) (TNB). After one hour, cells were washed with PBS and DAPI signals were visualized with the Nikon Eclipse Ti automated inverted wide-field epifluorescence microscope equipped with a 5× magnification (Plan Fluor, numerical aperture 0.6) dry objective and a Nikon IE2000-E camera controlled by the MS Elements software. The intensity of the DAPI signals was determined with the FIJI software. Cell count for 24 h after irradiation experiment was performed by Moxi Z Mini Automated Cell Counter (ORFLO Technologies, Ketchum, Id., USA) after trypsinization. For the 72 h and 7 d post-irradiation cell counts, we used IncuCyte ZOOM™ phase contrast imaging based on 49 images taken per well with the 10× objective.

[4] = system: TIME cells; assay: Cytokine detection (Magnetic Luminex) in supernatant after irradiation, TIME cells; format: cell-based, human
Protocol: as §1, §2

[5] = system: TICAE cells; assay: IGFBP-7 and GDF-15 multiplex-based assays, TICAE cells; format: cell-based, human; conditions: 7 d p.i.
Protocol: as §1

[6] = 100 μM TAT-Gap19, 0 Gy and 0.1 Gy, from 4-16 h p.i. until the end
[7] = 100 μM TAT-Gap19, 5 Gy, from 12 h p.i. until end of recording (100 h)
[8] = 100 μM TAT-Gap19, 5 Gy, 72 h and 7 d p.i.
[9] = 100 μM TAT-Gap19, control and 0.1 Gy

T1 sequence (P17302 whole entry): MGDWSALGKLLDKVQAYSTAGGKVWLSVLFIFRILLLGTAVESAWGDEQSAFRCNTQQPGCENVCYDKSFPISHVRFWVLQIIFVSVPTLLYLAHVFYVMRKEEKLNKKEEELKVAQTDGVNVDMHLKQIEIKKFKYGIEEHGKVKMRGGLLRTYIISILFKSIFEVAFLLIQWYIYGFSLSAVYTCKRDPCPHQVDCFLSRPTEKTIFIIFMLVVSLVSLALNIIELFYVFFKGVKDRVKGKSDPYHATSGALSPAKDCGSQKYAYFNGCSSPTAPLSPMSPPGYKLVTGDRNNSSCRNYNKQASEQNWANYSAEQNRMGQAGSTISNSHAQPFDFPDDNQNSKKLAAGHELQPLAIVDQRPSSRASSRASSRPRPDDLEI

Substance: TAT-Gap19: connexin mimetic peptide, amino-acids 128-136 of the CL of Cx43 (SEQ ID NO: 2), Gap19 linked to TAT sequence; Cx43 hemichannel inhibitor (YGRKKRRQRRRKQIEIKKFK)
- radiation-induced PI dye uptake ([1]; 100 μM TAT-Gap19, fractionated 5 Gy, 72 h): had no effect
- radiation-induced PI dye uptake ([1]; 100 μM TAT-Gap19, single irradiation, 72 h p.i.): most clear and significant at the 72 h p.i. time point
- Annexin V [2, 6]: significantly reduced
- Caspase 3/7 activity [2, 6]: significantly reduced
- Annexin V [2, 7]: significantly reduced
- Caspase 3/7 activity [2, 7]: significantly reduced
- MCP-1 readout ([3]; 100 μM TAT-Gap19, 0 Gy control and 0.1 Gy, 72 h p.i.): increased
- IL-8 (radiation-induced increase) [3, 8]: significantly decreased these responses
- MCP-1 (radiation-induced increase) [3, 8]: significantly decreased these responses
- VCAM-1 (radiation-induced increase) [3, 8]: significantly decreased these responses
- all tested inflammatory markers ([3]; 100 μM TAT-Gap19, 24 h time point): increased all tested markers
- Endothelin-1 (radiation-induced increase) ([3]; 100 μM TAT-Gap19, 7 d p.i.): significantly reduced these responses
- IL-11 (radiation-induced increase) ([3]; 100 μM TAT-Gap19, 7 d p.i.): significantly reduced these responses
- Endothelin-1 readout [3, 9]: decreased
- E-selectin readout ([4]; 100 μM TAT-Gap19, 0.1 Gy): decreased
- IL-6 readout ([4]; 100 μM TAT-Gap19, 0.1 Gy): decreased
- IL-8 readout ([4]; 100 μM TAT-Gap19, 0.1 Gy): decreased
- PECAM-1 readout ([4]; 100 μM TAT-Gap19, 0.1 Gy): decreased
- TNF-α readout ([4]; 100 μM TAT-Gap19, 0.1 Gy): decreased
- VCAM-1 readout ([4]; 100 μM TAT-Gap19, 0.1 Gy): decreased
- CRP (radiation-induced increase) ([4]; 100 μM TAT-Gap19, 5 Gy, 24 h): significantly reduced the increase
- E-Selectin (radiation-induced increase) ([4]; 100 μM TAT-Gap19, 5 Gy, 24 h): significantly reduced the increase
- ICAM-1 (radiation-induced increase) ([4]; 100 μM TAT-Gap19, 5 Gy, 24 h): significantly reduced the increase
- IL-1B (radiation-induced increase) ([4]; 100 μM TAT-Gap19, 5 Gy, 24 h): significantly reduced the increase
- MCP-1 (radiation-induced increase) ([4]; 100 μM TAT-Gap19, 5 Gy, 24 h): significantly reduced the increase
- PECAM-1 (radiation-induced increase) ([4]; 100 μM TAT-Gap19, 5 Gy, 24 h): significantly reduced the increase
- TNF-α (radiation-induced increase) ([4]; 100 μM TAT-Gap19, 5 Gy, 24 h): significantly reduced the increase
- IL-6 (radiation-induced increase) ([4]; 100 μM TAT-Gap19, 5 Gy, 24 h, 48 h and 7 d p.i.): significantly reduced these responses
- Endothelin-1 (radiation-induced increase) ([4]; 100 μM TAT-Gap19, 5 Gy, 24 h, 72 h and 7 d p.i.): significantly decreased these responses
- VCAM-1 (radiation-induced increase) ([4]; 100 μM TAT-Gap19, 5 Gy, 24 h and 7 d p.i.): significantly reduced these responses
- IL-8 levels ([4]; 100 μM TAT-Gap19, 5 Gy, 7 d p.i.): significantly decreased IL-8 levels
- Endothelin-1 readout [4, 9]: decreased
- IL-6 readout ([4]; 100 μM TAT-Gap19, control and 0.1 Gy, 7 d p.i.): increased
- GDF-15 ([5]; 100 μM TAT-Gap19, 0, 0.1 and 5 Gy): significantly inhibited these responses in all treated conditions
- IGFBP-7 ([5]; 100 μM TAT-Gap19, 0.1 Gy): acted in a significantly inhibitory way
- IGFBP-7 (radiation-induced increase) ([5]; 100 μM TAT-Gap19, 5 Gy): not inhibited

Source: US20200384072A1, “THERAPY OF IONIZING RADIATION-INDUCED DISORDERS” (SCK-CEN, priority 2019, published 2020)
